Measurements reported in patent US20250215012A1, “IKZF2 DEGRADERS AND USES THEREOF” (REGENTS OF THE UNIVERSITY OF MICHIGAN, priority 2022, published 2025).

Molecular target: IKZF2 (Homo sapiens (Human), UniProt Q96SW2+Q9UKS7)
Test: IKZF2 HiBiT Assay (Jurkat-IKZF2-HiBiT cell line)
Format: cell-based
Settings: Jurkat-IKZF2-HiBiT cells, 24 hours; for DC50: read-out: HiBit assay degradation analysis DC50; for Dmax: read-out: HiBit assay degradation analysis Dmax
Experimental: Degradation of IKZF2 protein is determined by IKZF2 HiBiT assay using the Jurkat-IKZF2-HiBiT (Promega) cell line. Briefly, cells are seeded in culture medium. Compounds are serially diluted in culture medium, and certain volume of the diluted compounds is added to the appropriate well of the plate. After the addition of compounds, the cells are incubated. At the end of treatment, Nano-Glo HiBiT Lytic Detection Reagent (Promega) is added to each well, and then the plates are incubated at room temperature for a certain time period. The luminescent signal is measured using a CALRIOstar plate reader (BMG Labtech). The readings are normalized to the DMSO-treated cells and the IC50 is calculated by nonlinear regression (four parameters sigmoid fitted with variable slope, least squares fit, and no constraint) analysis using the GraphPad Prism 8 software.
Degradation of IKZF2 protein was determined by IKZF2 HiBiT assay using the Jurkat-IKZF2-HiBiT (Promega) cell line. […] Compounds were serially diluted in culture medium, and 20 μl of the diluted compounds were added to the appropriate wells of the plate. After the addition of compounds, the cells were incubated at 37° C. in an atmosphere of 5% CO2 for 24 hours. At the end of treatment, 40 ul of Nano-Glo HiBiT Lytic Detection Reagent (Promega) was added to each well, and then the plates were incubated at room temperature for 10-20 minutes. The luminescent signal was measured using a CALRIOstar plate reader (BMG Labtech). The readings were normalized to the DMSO-treated cells and the IC50 was calculated by nonlinear regression (four parameters sigmoid fitted with variable slope, least squares fit, and no constraint) analysis using the GraphPad Prism 8 software.

Sequence of IKZF2 (Q9UKS7 whole entry): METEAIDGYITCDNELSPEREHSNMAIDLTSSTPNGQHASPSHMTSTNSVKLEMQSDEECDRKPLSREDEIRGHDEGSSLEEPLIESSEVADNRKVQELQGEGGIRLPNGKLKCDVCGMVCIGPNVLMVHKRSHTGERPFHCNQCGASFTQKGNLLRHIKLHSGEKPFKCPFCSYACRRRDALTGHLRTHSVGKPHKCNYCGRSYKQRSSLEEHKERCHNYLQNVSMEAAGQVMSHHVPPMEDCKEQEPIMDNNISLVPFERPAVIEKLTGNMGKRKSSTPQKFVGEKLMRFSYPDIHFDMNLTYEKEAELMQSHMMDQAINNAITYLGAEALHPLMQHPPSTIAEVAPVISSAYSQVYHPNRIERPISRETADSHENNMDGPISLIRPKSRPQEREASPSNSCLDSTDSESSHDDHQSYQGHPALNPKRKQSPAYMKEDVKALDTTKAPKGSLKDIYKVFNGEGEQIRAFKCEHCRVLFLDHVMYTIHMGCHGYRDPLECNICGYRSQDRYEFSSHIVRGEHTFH
Sequence of IKZF2 (Q96SW2 whole entry): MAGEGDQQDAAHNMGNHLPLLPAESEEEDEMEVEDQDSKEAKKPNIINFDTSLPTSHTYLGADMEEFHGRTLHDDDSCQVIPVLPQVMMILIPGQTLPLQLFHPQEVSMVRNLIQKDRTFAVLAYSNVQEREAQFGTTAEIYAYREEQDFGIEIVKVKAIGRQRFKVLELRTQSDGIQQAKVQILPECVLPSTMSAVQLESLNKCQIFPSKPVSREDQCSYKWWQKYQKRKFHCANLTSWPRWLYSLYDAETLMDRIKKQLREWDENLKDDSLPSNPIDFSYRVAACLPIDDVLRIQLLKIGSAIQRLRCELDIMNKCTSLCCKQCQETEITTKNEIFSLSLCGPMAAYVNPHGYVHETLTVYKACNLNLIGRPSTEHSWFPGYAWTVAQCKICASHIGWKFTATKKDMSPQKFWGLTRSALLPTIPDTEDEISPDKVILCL
Sequence of IKZF2 (Q16531 whole entry partner): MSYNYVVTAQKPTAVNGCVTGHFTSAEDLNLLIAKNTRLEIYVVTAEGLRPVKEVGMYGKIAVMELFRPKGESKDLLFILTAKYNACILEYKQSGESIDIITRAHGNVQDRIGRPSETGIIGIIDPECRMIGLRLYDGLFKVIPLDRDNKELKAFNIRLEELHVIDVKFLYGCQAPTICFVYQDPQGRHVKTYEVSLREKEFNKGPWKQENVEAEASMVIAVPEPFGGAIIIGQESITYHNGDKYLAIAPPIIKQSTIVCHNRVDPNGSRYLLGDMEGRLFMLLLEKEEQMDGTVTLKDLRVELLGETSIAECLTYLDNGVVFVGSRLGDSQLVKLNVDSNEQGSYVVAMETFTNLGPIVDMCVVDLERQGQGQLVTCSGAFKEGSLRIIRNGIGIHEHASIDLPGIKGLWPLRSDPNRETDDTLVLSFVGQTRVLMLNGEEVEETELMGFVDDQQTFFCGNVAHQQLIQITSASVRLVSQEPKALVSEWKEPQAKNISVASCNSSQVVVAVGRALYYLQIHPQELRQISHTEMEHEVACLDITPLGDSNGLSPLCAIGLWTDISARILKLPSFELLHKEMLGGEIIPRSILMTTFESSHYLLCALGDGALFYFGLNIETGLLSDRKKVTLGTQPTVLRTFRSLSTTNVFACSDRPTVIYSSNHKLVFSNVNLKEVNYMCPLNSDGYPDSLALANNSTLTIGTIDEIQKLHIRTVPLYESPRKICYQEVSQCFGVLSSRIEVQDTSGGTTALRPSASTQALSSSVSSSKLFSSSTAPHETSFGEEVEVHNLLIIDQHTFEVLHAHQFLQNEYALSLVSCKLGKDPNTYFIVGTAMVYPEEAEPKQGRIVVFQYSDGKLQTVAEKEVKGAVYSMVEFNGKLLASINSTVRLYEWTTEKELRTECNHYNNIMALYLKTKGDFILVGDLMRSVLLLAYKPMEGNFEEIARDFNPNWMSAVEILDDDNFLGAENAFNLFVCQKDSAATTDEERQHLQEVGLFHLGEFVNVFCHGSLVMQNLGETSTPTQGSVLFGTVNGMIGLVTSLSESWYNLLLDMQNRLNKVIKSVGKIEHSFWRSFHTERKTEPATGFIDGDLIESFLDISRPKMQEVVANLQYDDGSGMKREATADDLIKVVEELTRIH

Compound | DC50 | Dmax
O=C1CCC(N2Cc3c(ccc4c3OCC43CCN(Cc4ncn(-c5ccccc5)n4)CC3)C2=O)C(=O)N1 (centres unmarked) [Compound A335, 3-(6-oxo-1′-((1-phenyl-1H-1,2,4-triazol-3-yl)methyl)-6,8-dihydro-2H,7H-spiro[furo[2,3-e]isoindole-3,4′-piperidin]-7-yl)piperidine-2,6-dione] | > 500 nM | < 40%
O=C1CC[C@H](N2Cc3c(ccc4c3OCC43CCN(Cc4cccc(-c5cnn(CC6COC6)c5)c4)CC3)C2=O)C(=O)N1 [Compound A271, (S)-3-(1′-(3-(1-(oxetan-3-ylmethyl)-1H-pyrazol-4-yl)benzyl)-6-oxo-6,8-dihydro-2H,7H-spiro[furo[2,3-e]isoindole-3,4′-piperidin]-7-yl)piperidine-2,6-dione] | > 500 nM | < 40%
O=C1CCC(N2Cc3c(ccc4c3OCC43CCN(Cc4cccc(NS(=O)(=O)c5ccccc5)c4)CC3)C2=O)C(=O)N1 (centres unmarked) [Compound A261, N-(3-((7-(2,6-dioxopiperidin-3-yl)-6-oxo-7,8-dihydro-2H,6H-spiro[furo[2,3-e]isoindole-3,4′-piperidin]-1′-yl)methyl)phenyl)benzenesulfonamide] | > 500 nM | < 40%
O=C1CC[C@H](N2Cc3c(ccc4c3OCC43CCN(Cc4cccc(-c5cnn(CCF)c5)c4)CC3)C2=O)C(=O)N1 [Compound A293, (S)-3-(1′-(3-(1-(2-fluoroethyl)-1H-pyrazol-4-yl)benzyl)-6-oxo-6,8-dihydro-2H,7H-spiro[furo[2,3-e]isoindole-3,4′-piperidin]-7-yl)piperidine-2,6-dione] | < 50 nM | 60 to 80%
O=C1CCC(N2Cc3c(ccc4c3OCC43CCN(Cc4ccc5ccncc5c4)CC3)C2=O)C(=O)N1 (centres unmarked) [Compound A45] | 200 to 500 nM | 40 to 60%
O=C1CCC(N2Cc3c(ccc4c3OCC43CCN(Cc4ccccc4-n4cccn4)CC3)C2=O)C(=O)N1 (centres unmarked) [Compound A156, 3-(1′-(2-(1H-pyrazol-1-yl)benzyl)-6-oxo-6,8-dihydro-2H,7H-spiro[furo[2,3-e]isoindole-3,4′-piperidin]-7-yl)piperidine-2,6-dione] | > 500 nM | < 40%
CS(=O)(=O)c1ccccc1CN1CCC2(CC1)COc1c2ccc2c1CN(C1CCC(=O)NC1=O)C2=O (centres unmarked) [Compound A234, 3-(1′-(2-(methylsulfonyl)benzyl)-6-oxo-6,8-dihydro-2H,7H-spiro[furo[2,3-e]isoindole-3,4′-piperidin]-7-yl)piperidine-2,6-dione] | > 500 nM | < 40%
COc1ccc(C(=O)Nc2cccc(CN3CCC4(CC3)OCc3c4ccc4c3CN(C3CCC(=O)NC3=O)C4=O)c2)cc1 (centres unmarked) [Compound A262] | < 50 nM | 60 to 80%
O=C1CCC(N2Cc3c(ccc4c3OCC43CCN(Cc4cccc(Oc5ccccn5)c4)CC3)C2=O)C(=O)N1 (centres unmarked) [Compound A101, 3-(6-oxo-1′-(3-(pyridin-2-yloxy)benzyl)-6,8-dihydro-2H,7H-spiro[furo[2,3-e]isoindole-3,4′-piperidin]-7-yl)piperidine-2,6-dione] | < 50 nM | 60 to 80%
CC(C)Oc1cc(F)ccc1CN1CCC2(CC1)COc1c2ccc2c1CN([C@H]1CCC(=O)NC1=O)C2=O [Compound A361, (S)-3-(1′-(4-fluoro-2-isopropoxybenzyl)-6-oxo-6,8-dihydro-2H,7H-spiro[furo[2,3-e]isoindole-3,4′-piperidin]-7-yl)piperidine-2,6-dione] | > 500 nM | 40 to 60%
O=C1CCC(N2Cc3c(ccc4c3OCC43CCN(Cc4coc(-c5ccccc5)n4)CC3)C2=O)C(=O)N1 (centres unmarked) [Compound A83, 3-(6-oxo-1′-((2-phenyloxazol-4-yl)methyl)-6,8-dihydro-2H,7H-spiro[furo[2,3-e]isoindole-3,4′-piperidin]-7-yl)piperidine-2,6-dione] | > 500 nM | < 40%
O=C1CCC(N2Cc3c(ccc4c3OCC43CCN(Cc4cccc(N5CCCC5)c4)CC3)C2=O)C(=O)N1 (centres unmarked) [Compound A96, 3-(6-oxo-1′-(3-(pyrrolidin-1-yl)benzyl)-6,8-dihydro-2H,7H-spiro[furo[2,3-e]isoindole-3,4′-piperidin]-7-yl)piperidine-2,6-dione] | 50 to 200 nM | 60 to 80%
Cc1[nH]c2c(CN3CCC4(CC3)COc3c4ccc4c3CN(C3CCC(=O)NC3=O)C4=O)cccc2c1C (centres unmarked) [Compound A111, 3-(1′-((2,3-dimethyl-1H-indol-7-yl)methyl)-6-oxo-6,8-dihydro-2H,7H-spiro[furo[2,3-e]isoindole-3,4′-piperidin]-7-yl)piperidine-2,6-dione] | 50 to 200 nM | 60 to 80%
O=C1CCC(N2Cc3c(ccc4c3OCC43CCN(Cc4cccc(-c5cnn(C6CC6)c5)c4)CC3)C2=O)C(=O)N1 (centres unmarked) [Compound A174, 3-(1′-(3-(1-cyclopropyl-1H-pyrazol-4-yl)benzyl)-6-oxo-6,8-dihydro-2H,7H-spiro[furo[2,3-e]isoindole-3,4′-piperidin]-7-yl)piperidine-2,6-dione] | < 50 nM | 60 to 80%
O=C1CCC(N2Cc3c(ccc4c3OCC43CCN(Cc4ccn(-c5ccc(F)cc5)n4)CC3)C2=O)C(=O)N1 (centres unmarked) [Compound A322, 3-(1′-((1-(4-fluorophenyl)-1H-pyrazol-3-yl)methyl)-6-oxo-6,8-dihydro-2H,7H-spiro[furo[2,3-e]isoindole-3,4′-piperidin]-7-yl)piperidine-2,6-dione] | > 500 nM | < 40%
O=C1CCC(N2Cc3c(ccc4c3OCC43CCN(Cc4ccccc4Oc4ccccc4)CC3)C2=O)C(=O)N1 (centres unmarked) [Compound A100, 3-(6-oxo-1′-(2-phenoxybenzyl)-6,8-dihydro-2H,7H-spiro[furo[2,3-e]isoindole-3,4′-piperidin]-7-yl)piperidine-2,6-dione] | > 500 nM | < 40%
O=C1CC[C@H](N2Cc3c(ccc4c3OCC43CCN(Cc4ccc5cn(C(F)F)nc5c4)CC3)C2=O)C(=O)N1 [Compound A288, (S)-3-(1′-((2-(difluoromethyl)-2H-indazol-6-yl)methyl)-6-oxo-6,8-dihydro-2H,7H-spiro[furo[2,3-e]isoindole-3,4′-piperidin]-7-yl)piperidine-2,6-dione] | < 50 nM | 60 to 80%
O=C1CC[C@H](N2Cc3c(ccc4c3OCC43CCN(Cc4cnn(S(=O)(=O)c5ccc(F)c(F)c5)c4)CC3)C2=O)C(=O)N1 [Compound A353, (S)-3-(1′-((1-((3,4-difluorophenyl)sulfonyl)-1H-pyrazol-4-yl)methyl)-6-oxo-6,8-dihydro-2H,7H-spiro[furo[2,3-e]isoindole-3,4′-piperidin]-7-yl)piperidine-2,6-dione] | – | 40 to 60%
O=C1CCC(N2Cc3c(ccc4c3OCC43CCN(Cc4ccnn4-c4ccccc4)CC3)C2=O)C(=O)N1 (centres unmarked) [Compound A246, 3-(6-oxo-1′-((1-phenyl-1H-pyrazol-5-yl)methyl)-6,8-dihydro-2H,7H-spiro[furo[2,3-e]isoindole-3,4′-piperidin]-7-yl)piperidine-2,6-dione] | > 500 nM | < 40%
O=C1CCC(N2Cc3c(ccc4c3OCC43CCN(Cc4ccc5oc(=O)[nH]c5c4)CC3)C2=O)C(=O)N1 (centres unmarked) [Compound A165, 3-(6-oxo-1′-((2-oxo-2,3-dihydrobenzo[d]oxazol-5-yl)methyl)-6,8-dihydro-2H,7H-spiro[furo[2,3-e]isoindole-3,4′-piperidin]-7-yl)piperidine-2,6-dione] | 50 to 200 nM | 60 to 80%
O=C1CCC(N2Cc3c(ccc4c3OCC43CCN(Cc4ccc(F)c5ccoc45)CC3)C2=O)C(=O)N1 (centres unmarked) [Compound A118, 3-(1′-((4-fluorobenzofuran-7-yl)methyl)-6-oxo-6,8-dihydro-2H,7H-spiro[furo[2,3-e]isoindole-3,4′-piperidin]-7-yl)piperidine-2,6-dione] | > 500 nM | 40 to 60%
Cn1nc(CN2CCC3(CC2)COc2c3ccc3c2CN(C2CCC(=O)NC2=O)C3=O)c2ccccc21 (centres unmarked) [Compound A226, 3-(1′-((1-methyl-1H-indazol-3-yl)methyl)-6-oxo-6,8-dihydro-2H,7H-spiro[furo[2,3-e]isoindole-3,4′-piperidin]-7-yl)piperidine-2,6-dione] | > 500 nM | 40 to 60%
COCCn1ncc2cc(CN3CCC4(CC3)COc3c4ccc4c3CN(C3CCC(=O)NC3=O)C4=O)ccc21 (centres unmarked) [Compound A342, 3-(1′-((1-(2-methoxyethyl)-1H-indazol-5-yl)methyl)-6-oxo-6,8-dihydro-2H,7H-spiro[furo[2,3-e]isoindole-3,4′-piperidin]-7-yl)piperidine-2,6-dione] | > 500 nM | < 40%
O=C1CCC(N2Cc3c(ccc4c3OCC43CCN(Cc4cnn(-c5ccccc5)c4)CC3)C2=O)C(=O)N1 (centres unmarked) [Compound A221, 3-(6-oxo-1′-((1-phenyl-1H-pyrazol-4-yl)methyl)-6,8-dihydro-2H,7H-spiro[furo[2,3-e]isoindole-3,4′-piperidin]-7-yl)piperidine-2,6-dione] | > 500 nM | 40 to 60%
